Test results taken from patent publication US9376425B2, “Heterocyclic compounds as MDM2 inhibitors for the treatment of cancer” (AMGEN INC., priority 2011, dated 2016).
pIC50: −log10 of the molar value.

Target: T1, human MDM2 (GST-hMDM2 1-188), interaction with biotinylated-p53 (1-83) (Homo sapiens, UniProt Q00987)
T1 construct: Amino acid residues 1-188 of human MDM2 were expressed; made in house; host or cells: Escherichia coli
Experiment: improved HTRF assay (HTRF2 assay), inhibition of HDM2-p53 interaction
Format: binding
Details: 0.2 nM GST-hMDM2, 0.5 nM biotinylated-p53, 100 mM KF
How it was run: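 Time-resolved fluorescence (HTRF) read after >4 h equilibration with SA-XLent/anti-GST cryptate/KF detection reagents. Reaction: compound plus GST-hMDM2 for 20 min at room temperature, then E. coli-expressed biotinylated p53 residues 1-83 for 60 min, 2% DMSO final. Inhibition expressed versus nutlin-3.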

T1 sequence (Q00987 1-188): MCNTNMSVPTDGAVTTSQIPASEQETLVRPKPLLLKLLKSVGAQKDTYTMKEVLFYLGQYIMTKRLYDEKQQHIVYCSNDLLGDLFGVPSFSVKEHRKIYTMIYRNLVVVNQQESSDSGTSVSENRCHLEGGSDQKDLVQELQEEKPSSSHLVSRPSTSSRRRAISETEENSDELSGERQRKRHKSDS

Compound | pIC50
CC(C)(C)S(=O)(=O)C[C@H](C1CC1)N1C(=O)[C@@H](CC(=O)O)O[C@H](c2ccc(Cl)c(Cl)c2)[C@H]1c1ccc(Cl)cc1 (single isomer, unassigned) [Example 318, 2-((2R,5R,6R)-4-((S)-2-(tert-Butylsulfonyl)-1-cyclopropylethyl)-5-(4-chlorophenyl)-6-(3,4-dichlorophenyl)-3-oxomorpholin-2-yl)acetic acid or 2-((2S,5R,6R)-4-((S)-2-(tert-butylsulfonyl)-1-cyclopropylethyl)-5-(4-chlorophenyl)-6-(3,4-dichlorophenyl)-3-oxomorpholin-2-yl)acetic acid] | 8.10
(2R,5R,6R)-4-((S)-2-(tert-Butylsulfonyl)-1-cyclopropylethyl)-6-(3-chlorophenyl)-5-(4-chlorophenyl)-2-((3-methyl-1H-1,2,4-triazol-5-yl)methyl)morpholin-3-one and (2S,5R,6R)-4-((S)-2-(tert-butylsulfonyl)-1-cyclopropylethyl)-6-(3-chlorophenyl)-5-(4-chlorophenyl)-2-((3-methyl-1H-1,2,4-triazol-5-yl)methyl)morpholin-3-one [Example 391] | 8.40
O=C(O)C[C@H]1O[C@H](c2cccc(Cl)c2)[C@@H](c2ccc(Cl)cc2)N([C@H](CN(c2ccccc2F)S(=O)(=O)C2CC2)CC(F)(F)F)C1=O (single isomer, unassigned) [Example 279] | 7.41
CC(C)(C)S(=O)(=O)C[C@H](C1CC1)N1C(=O)[C@@H](CC(=O)NCC#N)O[C@H](c2cccc(Cl)c2)[C@H]1c1ccc(Cl)cc1 (single isomer, unassigned) [Example 349, 2-((2R,5R,6R)-4-((S)-2-(tert-Butylsulfonyl)-1-cyclopropylethyl)-6-(3-chlorophenyl)-5-(4-chlorophenyl)-3-oxomorpholin-2-yl)-N-(cyanomethyl)acetamide or 2-((2S,5R,6R)-4-((S)-2-(tert-butylsulfonyl)-1-cyclopropylethyl)-6-(3-chlorophenyl)-5-(4-chlorophenyl)-3-oxomorpholin-2-yl)-N-(cyanomethyl)acetamide] | 9.00
CC(C)(C)S(=O)(=O)C[C@H](C1CC1)N1C(=O)[C@@](C)(CC(=O)O)O[C@H](c2cccc(Cl)c2)[C@H]1c1ccc(Cl)c(F)c1 (single isomer, unassigned) [Example 411, 2-((2R,5R,6R)-4-((S)-2-(tert-Butylsulfonyl)-1-cyclopropylethyl)-5-(4-chloro-3-fluorophenyl)-6-(3-chlorophenyl)-2-methyl-3-oxomorpholin-2-yl)acetic acid or 2-((2S,5R,6R)-4-((S)-2-(tert-butylsulfonyl)-1-cyclopropylethyl)-5-(4-chloro-3-fluorophenyl)-6-(3-chlorophenyl)-2-methyl-3-oxomorpholin-2-yl)acetic acid] | > 9.00
O=C(O)C[C@H]1O[C@H](c2cccc(Cl)c2)[C@@H](c2ccc(Cl)cc2)N([C@H](CN(c2ccccc2F)S(=O)(=O)C2CC2)CC(F)(F)F)C1=O (single isomer, unassigned) [Example 278] | 7.08
CC[C@@H](CS(=O)(=O)C(C)(C)C)N1C(=O)[C@@H](Cc2nnnn2C)O[C@H](c2cccc(Cl)c2)[C@H]1c1ccc(Cl)cc1 (single isomer, unassigned) [Example 401, (2R,5R,6R)-4-((S)-1-(tert-Butylsulfonyl)butan-2-yl)-6-(3-chlorophenyl)-5-(4-chlorophenyl)-2-((1-methyl-1H-tetrazol-5-yl)methyl)morpholin-3-one or (2R,5R,6R)-4-((S)-1-(tert-butylsulfonyl)butan-2-yl)-6-(3-chlorophenyl)-5-(4-chlorophenyl)-2-((2-methyl-2H-tetrazol-5-yl)methyl)morpholin-3-one] | 7.42
CC(C)(C)S(=O)(=O)C[C@H](C1CC1)N1C(=O)[C@@H](CC(=O)O)O[C@H](c2cccc(Cl)c2)[C@H]1c1ccc(Cl)c(F)c1 (single isomer, unassigned) [Example 309, 2-((2R,5R,6R)-4-((S)-2-(tert-Butylsulfonyl)-1-cyclopropylethyl)-5-(4-chloro-3-fluorophenyl)-6-(3-chlorophenyl)-3-oxomorpholin-2-yl)acetic acid or 2-((2S,5R,6R)-4-((S)-2-(tert-butylsulfonyl)-1-cyclopropylethyl)-5-(4-chloro-3-fluorophenyl)-6-(3-chlorophenyl)-3-oxomorpholin-2-yl)acetic acid] | 9.00
CC[C@]1(CC(=O)O)O[C@H](c2cccc(Cl)c2)[C@@H](c2ccc(Cl)cc2)N([C@@H](CC(F)(F)F)CS(=O)(=O)C(C)(C)C)C1=O (single isomer, unassigned) [Example 343, 2-((2R,5R,6R)-4-((S)-1-(tert-Butylsulfonyl)-4,4,4-trifluorobutan-2-yl)-6-(3-chlorophenyl)-5-(4-chlorophenyl)-2-ethyl-3-oxomorpholin-2-yl)acetic acid or 2-((2S,5R,6R)-4-((S)-1-(tert-butylsulfonyl)-4,4,4-trifluorobutan-2-yl)-6-(3-chlorophenyl)-5-(4-chlorophenyl)-2-ethyl-3-oxomorpholin-2-yl)acetic acid] | 9.00
C[C@@H](CS(=O)(=O)C(C)(C)C)N1C(=O)[C@@H](CC(=O)N2CCOCC2)O[C@H](c2cccc(Cl)c2)[C@H]1c1ccc(Cl)cc1 (single isomer, unassigned) [Example 236, (2R,5R,6R)-4-((S)-1-(tert-butylsulfonyl)propan-2-yl)-6-(3-chlorophenyl)-5-(4-chlorophenyl)-2-(2-morpholino-2-oxoethyl)morpholin-3-one or (2S,5R,6R)-4-((S)-1-(tert-butylsulfonyl)propan-2-yl)-6-(3-chlorophenyl)-5-(4-chlorophenyl)-2-(2-morpholino-2-oxoethyl)morpholin-3-one] | 7.66
CC(C)(C)S(=O)(=O)C[C@H](C1CC1)N1C(=O)[C@@H](CC(=O)Nc2ccccc2F)O[C@H](c2cccc(Cl)c2)[C@H]1c1ccc(Cl)cc1 (single isomer, unassigned) [Example 352, 2-((2R,5R,6R)-4-((S)-2-(tert-Butylsulfonyl)-1-cyclopropylethyl)-6-(3-chlorophenyl)-5-(4-chlorophenyl)-3-oxomorpholin-2-yl)-N-(2-fluorophenyl)acetamide or 2-((2S,5R,6R)-4-((S)-2-(tert-butylsulfonyl)-1-cyclopropylethyl)-6-(3-chlorophenyl)-5-(4-chlorophenyl)-3-oxomorpholin-2-yl)-N-(2-fluorophenyl)acetamide] | 7.60
CC(C)(C)S(=O)(=O)C[C@H](C1CC1)N1C(=O)[C@@H](CC(=O)NCC(F)(F)F)O[C@H](c2cccc(Cl)c2)[C@H]1c1ccc(Cl)cc1 (single isomer, unassigned) [Example 346, 2-((2R,5R,6R)-4-((S)-2-(tert-Butylsulfonyl)-1-cyclopropylethyl)-6-(3-chlorophenyl)-5-(4-chlorophenyl)-3-oxomorpholin-2-yl)-N-(2,2,2-trifluoroethyl)acetamide or 2-((2S,5R,6R)-4-((S)-2-(tert-butylsulfonyl)-1-cyclopropylethyl)-6-(3-chlorophenyl)-5-(4-chlorophenyl)-3-oxomorpholin-2-yl)-N-(2,2,2-trifluoroethyl)acetamide] | 7.68
CC[C@@H](CS(=O)(=O)C(C)(C)C)N1C(=O)[C@H](CC(=O)OC)O[C@H](c2cccc(Cl)c2)[C@H]1c1ccc(Cl)cc1 [Example 150, Methyl 2-((2S,5R,6R)-4-((S)-1-(tert-butylsulfonyl)butan-2-yl)-6-(3-chlorophenyl)-5-(4-chlorophenyl)-3-oxomorpholin-2-yl)acetate] | 7.68
O=C1[C@@H](Cc2cnn[nH]2)O[C@H](c2cccc(Cl)c2)[C@@H](c2ccc(Cl)cc2)N1[C@H](CN(c1ccccc1F)S(=O)(=O)C1CC1)C1CC1 (single isomer, unassigned) [Example 394, N-((S)-2-((2R,5R,6R)-2-((1H-1,2,3-Triazol-5-yl)methyl)-6-(3-chlorophenyl)-5-(4-chlorophenyl)-3-oxomorpholino)-2-cyclopropylethyl)-N-(2-fluorophenyl)cyclopropanesulfonamide or N-((S)-2-((2S,5R,6R)-2-((1H-1,2,3-triazol-5-yl)methyl)-6-(3-chlorophenyl)-5-(4-chlorophenyl)-3-oxomorpholino)-2-cyclopropylethyl)-N-(2-fluorophenyl)cyclopropanesulfonamide] | 9.00
CC[C@@H](CN(c1ccccc1F)S(=O)(=O)C1CC1)N1C(=O)[C@@H](CC(N)=O)O[C@H](c2cccc(Cl)c2)[C@H]1c1ccc(Cl)cc1 (single isomer, unassigned) [Example 242, 2-((2R,5R,6R)-6-(3-chlorophenyl)-5-(4-chlorophenyl)-4-((S)-1-(N-(2-fluorophenyl)cyclopropanesulfonamido)butan-2-yl)-3-oxomorpholin-2-yl)acetamide or 2-((2S,5R,6R)-6-(3-chlorophenyl)-5-(4-chlorophenyl)-4-((S)-1-(N-(2-fluorophenyl)cyclopropanesulfonamido)butan-2-yl)-3-oxomorpholin-2-yl)acetamide] | 8.70
CC(C)S(=O)(=O)[C@H]1CCC[C@@H]1N1C(=O)[C@@H](CC(=O)O)O[C@H](c2cccc(Cl)c2)[C@H]1c1ccc(Cl)cc1 (single isomer, unassigned) [Example 421] | 4.87
CC[C@@H](CN(C)S(=O)(=O)C1CC1)N1C(=O)[C@@H](Cc2nnn[nH]2)O[C@H](c2cccc(Cl)c2)[C@H]1c1ccc(Cl)cc1 (single isomer, unassigned) [Example 243, N-((S)-2-((2R,5R,6R)-2-((1H-tetrazol-5-yl)methyl)-6-(3-chlorophenyl)-5-(4-chlorophenyl)-3-oxomorpholino)butyl)-N-methylcyclopropanesulfonamide or N-((S)-2-((2S,5R,6R)-2-((1H-tetrazol-5-yl)methyl)-6-(3-chlorophenyl)-5-(4-chlorophenyl)-3-oxomorpholino)butyl)-N-methylcyclopropanesulfonamide] | 9.00
